These results are taken from paper PMC12395000 (RSC Advances, 2025).

One test relates to HCT-116 cancer cells. As to the kind of experiment: MTT cytotoxicity assay, HCT-116. Particulars: Homo sapiens, HCT-116, 48 h, read-out: IC50 ± SD. In kind it is cell-based. In general terms: Tetrazolium dyes change colour on reduction, which living cells bring about.
The subject of the next test is WI-38 cells. As to the kind of experiment: MTT cytotoxicity assay, normal WI-38. Particulars: Homo sapiens, WI-38, 48 h, read-out: IC50 ± SD. Type of test: cell-based.
A further test concerns the target EGFR (Homo sapiens, UniProt P00533). As to the kind of experiment: EGFR kinase inhibitory assay. Type of test: biochemical. To be noted: for IC50: EGFR IC50 ± SD.
Test [1] deals with HCT-116 cells. Put plainly: DNA-content cell cycle analysis by flow cytometry. Type of test: cell-based. To be noted: HCT-116, IC50 = 1.34 μM, 48 h; control 54.19%. A general note: A flow cytometer gives signals particle by particle.
For test [2], the system named is P53, Bax, caspase-3, caspase-8, caspase-9, Bcl-2 genes in HCT-116 cells. Put plainly: RT-PCR gene expression of apoptosis-related genes. Type of test: cell-based. Particulars: HCT-116, IC50 = 1.34 μM, 48 h.
Test [3] deals with HCT-116 cells. As to the kind of experiment: Annexin V/PI staining flow cytometry. In kind it is cell-based.
[4] abbreviates: three replicates, concentrations 0.001-10 μM.

Chain of EGFR (P00533 25-1210): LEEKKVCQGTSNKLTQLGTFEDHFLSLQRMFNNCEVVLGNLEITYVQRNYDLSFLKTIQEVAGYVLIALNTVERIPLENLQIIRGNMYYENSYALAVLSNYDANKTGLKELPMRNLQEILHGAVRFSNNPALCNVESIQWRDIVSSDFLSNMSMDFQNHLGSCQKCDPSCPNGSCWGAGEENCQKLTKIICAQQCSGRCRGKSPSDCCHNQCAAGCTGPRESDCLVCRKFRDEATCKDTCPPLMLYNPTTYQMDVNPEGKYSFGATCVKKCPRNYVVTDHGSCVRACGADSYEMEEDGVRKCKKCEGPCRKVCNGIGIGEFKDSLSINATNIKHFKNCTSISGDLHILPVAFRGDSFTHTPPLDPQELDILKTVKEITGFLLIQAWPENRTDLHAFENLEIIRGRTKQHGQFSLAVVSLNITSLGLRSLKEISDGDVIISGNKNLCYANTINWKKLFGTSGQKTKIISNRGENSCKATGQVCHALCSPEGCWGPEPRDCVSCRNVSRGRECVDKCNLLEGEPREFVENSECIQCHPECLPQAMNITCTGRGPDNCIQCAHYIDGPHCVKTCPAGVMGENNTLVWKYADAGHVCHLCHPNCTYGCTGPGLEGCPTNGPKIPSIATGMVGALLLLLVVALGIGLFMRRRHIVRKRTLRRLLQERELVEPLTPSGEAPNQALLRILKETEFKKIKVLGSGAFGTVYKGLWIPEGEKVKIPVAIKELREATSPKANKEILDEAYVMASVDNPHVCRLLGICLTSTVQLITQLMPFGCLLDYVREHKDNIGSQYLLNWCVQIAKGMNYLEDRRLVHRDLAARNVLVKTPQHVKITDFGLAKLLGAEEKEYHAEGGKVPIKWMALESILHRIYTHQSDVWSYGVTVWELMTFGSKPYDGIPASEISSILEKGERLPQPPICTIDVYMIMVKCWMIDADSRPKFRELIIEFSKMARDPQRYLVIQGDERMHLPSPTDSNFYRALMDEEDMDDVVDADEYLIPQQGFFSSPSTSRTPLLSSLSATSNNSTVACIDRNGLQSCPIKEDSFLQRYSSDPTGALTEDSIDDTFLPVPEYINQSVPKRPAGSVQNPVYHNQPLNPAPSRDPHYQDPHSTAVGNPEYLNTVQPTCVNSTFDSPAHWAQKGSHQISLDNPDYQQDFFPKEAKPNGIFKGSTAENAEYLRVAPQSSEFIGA

In the case of `C#Cc1cccc(Nc2ncnc3cc(OCCOC)c(OCCOC)cc23)c1` [Erlotinib, reference compound], the IC50 (commonly the point on the concentration scale where inhibition reaches its midpoint) is 1320 ± 200 nM in the test with HCT-116 cancer cells and not below 50000 nM with WI-38 cells.
As for `Cc1[nH]c(=O)nc2c1c(=O)oc1ccc3ccccc3c12` [Compound 16, 4-Methyl-2H-benzo[5,6]chromeno[4,3-d]pyrimidine-2,5(3H)-dione], the “EGFR IC50 ± SD” value at EGFR (setting [4]) was “non-detected”. The IC50 was 6460 nM with HCT-116 cancer cells and not below 50000 nM with WI-38 cells.
Regarding `CC1=C(C(=O)Nc2ccccn2)C(c2ccc3ccc4cccc5ccc2c3c45)NC(=S)N1` (stereo not drawn) [Compound 4b, 6-Methyl-4-(pyren-1-yl)-N-(pyridin-2-yl)-2-thioxo-1,2,3,4-tetrahydropyrimidine-5-carboxamide], the “cell population at G1-phase (%DIP G1)” value with HCT-116 cells [1] is 87.55%. For the same compound, in test [2], the “Bax gene expression fold change” value was 3.54 fold change, the “P53 gene expression fold change” value was 6.85 fold change, the “caspase-3 gene expression fold change” value amounted to 8.37 fold change and the “caspase-8 gene expression fold change” value was found to be 2.3 fold change. In addition, the “caspase-9 gene expression fold change” value in test [2] is 6.80 fold change. For the same compound, the “Bcl-2 gene expression fold change” value in test [2] (antiapoptotic gene, decreased) worked out at 0.37 fold change. In addition, half-maximal inhibition against EGFR (setting [4]) (IC50) required 77 ± 4.36 nM. Further, the “apoptosis induction versus control” value in the test with HCT-116 cells [3] (HCT-116) was 30.2 fold. In the test with HCT-116 cells [3] (HCT-116, IC50 = 1.34 μM, 48 h, Q1, control 2.13%), this compound returned a necrosis of 5.58%. The late apoptosis in the test on HCT-116 cells [3] (HCT-116, IC50 = 1.34 μM, 48 h, Q2) is on record as 7.36%. This compound also registered an early apoptosis with HCT-116 cells [3] (HCT-116, IC50 = 1.34 μM, 48 h, Q4) of 19.24%. The “cells that died by apoptosis (total)” value in the test with HCT-116 cells [3] (HCT-116, treated at IC50 = 1.34 μM, 48 h, control 0.88%) came out at 26.60%. In the test with HCT-116 cancer cells, the IC50 is 1340 ± 400 nM. Also, the IC50 with WI-38 cells was not below 50000 nM.
As to `CC1=C(C(=O)Nc2cccnc2)C(c2ccc3ccc4cccc5ccc2c3c45)NC(=S)N1` (stereo not drawn) [Compound 4c, 6-Methyl-4-(pyren-1-yl)-N-(pyridin-3-yl)-2-thioxo-1,2,3,4-tetrahydropyrimidine-5-carboxamide], the 50% inhibitory concentration (IC50) was 94.9 ± 4.95 nM on EGFR (setting [4]), 1900 ± 300 nM with HCT-116 cancer cells and not below 50000 nM with WI-38 cells.
Consider `CC1=C(C(=O)Nc2ccccc2)C(c2ccc3ccc4cccc5ccc2c3c45)NC(=S)N1` (stereo not drawn) [Compound 4a, 6-Methyl-N-phenyl-4-(pyren-1-yl)-2-thioxo-1,2,3,4-tetrahydropyrimidine-5-carboxamide], for which the IC50 is 104 ± 5.67 nM at EGFR (setting [4]), 4800 nM in the test with HCT-116 cancer cells and not below 50000 nM with WI-38 cells. Also, the EGFR inhibition percentage on EGFR (concentration not given) was determined as 82.3%.
